The values that follow come from patent US11985975B1, “N-[(2-{[(furan-ylcarbonyl)carbamothioyl]amino }phenyl)carbamothioyl]furan-2-carboxamide as an eco-friendly insecticidal agent against Spodoptera littoralis (boisd.)” (KING FAISAL UNIVERSITY, priority 2023, dated 2024).

Structures are written as SMILES. Converted amounts (≈) assume the structure as drawn. Read-outs that look alike come from different tables or passages of the source.

The assay concerns Spodoptera littoralis larvae (second and fourth instars). Put plainly: Insecticidal bioassay screening (castor leaf dip), laboratory strain of cotton leafworm. The format is in vivo. To be noted: for LC90 (mg/L) at 95%: after 72 hrs of treatment; for Toxicity index %: after 72 hrs, reference LC50/compound LC50 x 100; for LC50: Spodoptera littoralis, foliar. The method, then:
Five concentrations (200, 100, 50, 25, 12.5 ppm) were designed for this synthetic compound and the reference Diflubenzuron compound as the dynamic ingredients based on ppm via diluting the commercial formulation.
In this experiment, castor leaves are immersed in each of the previously prepared concentrations of the components for 10 seconds and then left to dry for 60 minutes. Larvae of the second and fourth instars of each checked strain are prepared with treated leaves in gauze-covered glass containers for 72 hrs. An untreated control is made in which leaves are dipped in triton x-100 and distilled water only. Then the preserved leaves were removed & fresh, untreated leaves were provided for 72 hours. Three replicates (10 larvae each) were checked for each concentration. Daily inspection was carried out for all treatments and mortality percentages were recorded 3 days (72 hours) after treatment. The average mortality percentage was corrected employing Abbott's formula. The corrected mortality rate for each of the previously synthesized compounds is statistically calculated according to Finney (1970). Through this rate, the corresponding concentration test lines (LDP lines) are assessed.

Setting [1] is: 72 h, read-out: LC50 (mg/L) at 95%, 2nd instar larvae, after 72 hrs of treatment.
The mark [2] stands for this setting: 72 h, read-out: LC50 (mg/L) at 95%, 4th instar larvae, after 72 hrs of treatment.
The mark [3] stands for this setting: against Spodoptera littoralis under laboratory conditions (instar not stated).

As for `O=C(NC(=O)c1c(F)cccc1F)Nc1ccc(Cl)cc1` [Diflubenzuron, reference compound], the “LC90 (mg/L) at 95%” value was 520.0 mg/L (≈ 1670 µM) (2nd instar larvae) and 1540.5 mg/L (≈ 4960 µM) (4th instar larvae). Besides, the Toxicity index % is, setting by setting: (2nd instar larvae) 100%; (4th instar larvae) 100%. Also, the LC50 worked out at 45.2 mg/L (≈ 145 µM) under setting [1], 144 mg/L (≈ 464 µM) under setting [2] and 45.2 mg/L (≈ 145 µM) under setting [3].

As to `O=C(NC(=S)Nc1ccccc1NC(=S)NC(=O)c1ccco1)c1ccco1` [Compound 2, N-[(2-{[(furan-ylcarbonyl)carbamothioyl]amino}phenyl)carbamothioyl]furan-2-carboxamide], the “LC90 (mg/L) at 95%” value runs as follows: (2nd instar larvae) 7450.5 mg/L (≈ 18000 µM); (4th instar larvae) 1837.2 mg/L (≈ 4430 µM). The Toxicity index % is, setting by setting: (2nd instar larvae) 10.6%; (4th instar larvae) 14.7%. The LC50 runs as follows: under setting [1], 424 mg/L (≈ 1020 µM); under setting [2], 976 mg/L (≈ 2350 µM); under setting [3], 424 mg/L (≈ 1020 µM). For the same compound, where the note is “compared with reference insecticide Diflubenzuron”, the “Insecticidal activity (in words)” value is “active against Spodoptera littoralis”.
